These results are taken from US6960586B2, “Imidazole derivatives, process for their preparation and their use” (Takeda Pharmaceutical Company Limited, priority 2000, dated 2005).

Assay [1] relates to testosterone synthesis. The assay can be described thus: Assay of inhibitory activity on testosterone synthesis in rats. The class given is in vivo, rat. As to conditions: 25 mg/kg orally, male SD rats, serum testosterone two hours after administration, relative to control group. On the procedure: Assay of Inhibitory Activity on Testosterone Synthesis in Rats
Test compounds (25 mg/kg) were orally administered to 9-week-old male SD (Sprague Dawley) rats. Two hours after administration of the compounds, blood was drawn and testosterone concentration in the obtained serum was measured by radioimmunoassay. The percentage (T/C, %) of the testosterone concentration of test compounds administration group to that of the control group was calculated, and taken as the inhibitory activity on testosterone synthesis.

Assay [2] has as its target T1, Rat Steroid C17,20-lyase (Rattus norvegicus, UniProt P11715).
T1 construct: Testes were excised from 10- to 13-week-old male SD rats, homogenized, and centrifuged to give microsomes; from tissue; host or cells: testis microsomes of male SD rats
T1 sequence (P11715 1-507): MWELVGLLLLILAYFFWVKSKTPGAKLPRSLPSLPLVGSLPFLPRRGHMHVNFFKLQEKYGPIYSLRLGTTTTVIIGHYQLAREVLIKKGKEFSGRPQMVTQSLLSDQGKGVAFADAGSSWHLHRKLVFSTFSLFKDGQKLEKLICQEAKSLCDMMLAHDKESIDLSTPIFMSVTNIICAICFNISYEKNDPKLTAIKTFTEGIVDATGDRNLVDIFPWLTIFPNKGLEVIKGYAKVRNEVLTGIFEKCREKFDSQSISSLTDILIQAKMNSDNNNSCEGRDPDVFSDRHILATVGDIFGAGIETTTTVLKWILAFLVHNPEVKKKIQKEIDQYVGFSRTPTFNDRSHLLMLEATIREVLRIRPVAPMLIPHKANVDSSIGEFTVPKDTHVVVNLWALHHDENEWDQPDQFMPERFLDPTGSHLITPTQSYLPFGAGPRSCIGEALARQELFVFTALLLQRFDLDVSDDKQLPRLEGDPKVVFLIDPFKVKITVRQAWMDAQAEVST
The assay can be described thus: Assay of inhibitory activity on rat steroid C17,20-lyase (testis microsomes). The class given is biochemical. Particulars: 10 nM [1,2-3H]-17α-hydroxyprogesterone, 37° C., 7 minutes. The method, then:
Assay of Inhibitory Activity on Rat Steroid C17,20-lyase
The activity was determined according to The Prostate, vol. 26, 140-150 (1995).
Testes were excised from 10- to 13-week-old male SD rats, homogenized, and centrifuged to give microsomes. [1,2-^3H]-17α-hydroxyprogesterone having a final concentration of 10 nM, NADPH solution and test compounds were dissolved in 10 μl of 100 mM phosphate buffer (pH 7.4) and microsome protein (7 μg/10 μl) was added. The reaction mixture was incubated at 37° C. for 7 minutes. Ethyl acetate (40 μl) was added and the mixture was centrifuged. The substrate and the products (androstenedione and testosterone) in the supernatant were separated by silica gel thin layer chromatography (TLC). The spots were detected and quantitatively determined by BAS 2000 Bioimage analyzer. The concentration of the test compounds necessary to reduce the amount of the products by 50% (IC50) relative to the amount of the products without test compound (control) as 100% was calculated, and shown in Table 1.

Assay [3] concerns the target T2, human CYP3A4 (Homo sapiens, UniProt P08684).
T2 construct: purchased GENTEST
The assay is described as follows: Assay of human CYP3A4-inhibitory activity. The class given is in vitro ADME. As to conditions: testosterone 100 μM as substrate, 6β-hydroxytestosterone formation, 37° C., 30 min. On the procedure:
Assay of Human CYP3A4-Inhibitory Activity
Performed as in the following according to Journal of Biological Chemistry, vol. 256, 11937 (1983).
A phosphate buffer solution (50 mM, pH 7.4) containing testosterone (final concentration 100 μM, hereinafter the same), human CYP3A4 (10 pmol/ml, manufactured by GENTEST), NADPH producing system (0.5 mM NADP, 5 mM glucose-6-phosphate, 5 mM magnesium chloride, 1.5 units/ml glucose-6-phosphate dehydrogenase) and the test compound was incubated at 37° C. for 30 min. Acetonitrile was added to the reaction mixture and the mixture was stirred and centrifuged. The 6β-hydroxytestosterone in the obtained supernatant was analyzed by high performance liquid chromatography. The concentration (IC50) of the compound necessary for 50% inhibition was calculated taking the production amount without addition of the test compound as 100%.

SMILES strings stand for the structures.

T2 sequence (P08684 whole entry): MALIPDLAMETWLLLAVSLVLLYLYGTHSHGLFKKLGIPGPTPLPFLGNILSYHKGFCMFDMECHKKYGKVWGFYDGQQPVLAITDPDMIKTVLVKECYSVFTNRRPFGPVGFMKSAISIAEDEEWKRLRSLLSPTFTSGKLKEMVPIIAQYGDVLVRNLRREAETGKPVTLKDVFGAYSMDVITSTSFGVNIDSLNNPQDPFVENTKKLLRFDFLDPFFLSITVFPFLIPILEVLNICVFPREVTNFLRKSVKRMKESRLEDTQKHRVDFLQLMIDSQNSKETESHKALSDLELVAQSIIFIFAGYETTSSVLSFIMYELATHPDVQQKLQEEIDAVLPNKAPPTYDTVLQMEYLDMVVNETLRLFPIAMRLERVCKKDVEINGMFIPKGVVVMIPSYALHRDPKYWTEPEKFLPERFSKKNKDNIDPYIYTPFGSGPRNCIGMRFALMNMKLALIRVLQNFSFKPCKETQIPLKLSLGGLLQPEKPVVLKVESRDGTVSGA

On to `CC(C)C(O)(c1ccc2c3c(ccc2c1)C(=O)N(C)C3)c1c[nH]cn1` (single isomer, unassigned; (-)) [Example 16, (−)-7-[1-hydroxy-1-(1H-imidazol-4-yl)-2-methylpropyl]-2-methyl-1,2-dihydro-3H-benzo[e]isoindol-3-one], for which the “Testosterone synthesis inhibitory activity (T/C, %)” value in assay [1] is on record as 4.3%. As for `CC(C)C(O)(c1ccc2c3c(ccc2c1)C(=O)NC3)c1c[nH]cn1` (stereo not shown) [Example 1, 7-[1-hydroxy-1-(1H-imidazol-4-yl)-2-methylpropyl]-1,2-dihydro-3H-benzo[e]isoindol-3-one], the half-maximal inhibitory concentration (IC50) in assay [2] is below 10 nM. Also, in assay [1], the “Testosterone synthesis inhibitory activity (T/C, %)” value came out at 6.0%.

As for `CC(C)C(O)(c1ccc2c3c(ccc2c1)C(=O)N(C)C3)c1c[nH]cn1` (stereo not shown) [Example 2, 7-[1-hydroxy-1-(1H-imidazol-4-yl)-2-methylpropyl]-2-methyl-1,2-dihydro-3H-benzo[e]isoindol-3-one], the IC50 in assay [2] was 15 nM; in assay [3], above 10000 nM. With `CCN1Cc2c(ccc3cc(C(O)(c4c[nH]cn4)C(C)C)ccc23)C1=O` (stereo not shown) [Example 3, 2-ethyl-7-[1-hydroxy-1-(1H-imidazol-4-yl)-2-methylpropyl]-1,2-dihydro-3-benzo[e]isoindol-3-one], the half-maximal inhibitory concentration (IC50) in assay [2] was 23 nM; in assay [3], above 10000 nM. As to `CC(C)C(O)(c1ccc2cc3c(cc2c1)CNC3=O)c1c[nH]cn1` (stereo not shown) [Example 10, 6-[1-hydroxy-1-(1H-imidazol-4-yl)-2-methylpropyl]-2,3-dihydro-1H-benzo[f]isoindol-1-one], the concentration for half-maximal inhibition (IC50) was 42 nM in assay [2] and above 10000 nM in assay [3].

Take `CC(C)CC(O)(c1ccc2c3c(ccc2c1)C(=O)N(C)C3)c1c[nH]cn1` (stereo not shown) [Example 14, 7-[1-hydroxy-1-(1H-imidazol-4-yl)-3-methylbutyl]-2-methyl-1,2-dihydro-3H-benzo[e]isoindol-3-one]: in assay [2], the concentration for half-maximal inhibition (IC50) came out at 22 nM.

The IC50 is the concentration at which inhibition is half-maximal. The low end stands for inhibition by little substance, the high end for a need for much substance.
